We go through 1 compound from patent US20230228744A1, “DRY EYE DISEASE BIOMARKERS AND THEIR USE FOR TREATMENT” (Aldeyra Therapeutics, Inc., priority 2020, published 2023).

Data set [1] has as its system 4-hydroxynonenal protein adducts (HNE) in tears. As to the kind of experiment: Phase 2/3 (TRANQUILITY) run-in cohort, ELISA of HNE-protein adducts in tears before and after dosing. It counts as in vivo, human. Conditions: single doses of 0.25% reproxalap, average of two doses (Day 1 first dose, Day 2 post chamber), n=9; vehicle: increase of 32 pg/mL (n=7). As to the method: [table] Tear RASP levels will be assessed via MMRM of change from pre to post dose on Day 1 and Day 2, with baseline (pre-dose) scores as a covariate, and dose and test article group as factors. Secondary Endpoints: • Visual analog scale eye dryness score assessed over 24 hours after first dose on Day 1, and over 90 minutes in CAE® (Key Secondary Symptom Endpoint) • Ora Calibra® Ocular Discomfort Scale assessed over 24 hours after first dose on Day 1, and over 90 minutes in CAE® • Ocular Discomfort & 4-Symptom Questionnaire assessed over 24 hours after first dose on Day 1, and before and after CAE® • Ora Calibra® Conjunctival Allergen Challenge Ocular Itching Scale assessed over 24 hours after first dose on Day 1, and before and after CAE® • Schirmer's Test change from baseline before and after the final dose on Day 1 • Change in tear RASP levels before and after Dose 1 and 2 on Day 1 and Dose 3 on Day 2. Conjunctival redness over 24 hours after first dose on Day 1. Visit 2 (Day 1, Baseline and In-Office Dosing) • Medical/Medication Update • Adverse Event Query • Visual Acuity (ETDRS) • Slit Lamp Biomicroscopy • Symptom Questionnaires • a. Ocular Discomfort & 4-Symptom Questionnaire • b. […] Ora Calibra® Conjunctival Allergen Challenge Ocular Itching Scale • Slit Lamp Biomicroscopy • Intraocular Pressure • Dilated Exam • Study Exit Data for the run-in cohort was obtained and analyzed. […]
In general terms: ELISA stands for enzyme-linked immunosorbent assay.

The subject of another data set is dry eye disease patients. Briefly: Phase 3 clinical trial (RENEW-Part 1), VAS ocular dryness score over 12-week chronic treatment. Conditions: 0.25% reproxalap, 12-week treatment, as early as one week after treatment initiation. The data set is classed as in vivo, human. The source says: Treatment Difference of induction-maintenance dosing, defined as the difference between the changes from baseline for the evaluated drug vs. vehicle (LS Mean Difference ±95% CI). Ocular Dryness Score co-primary endpoint assessed in pre-specified patient population having an OD4S dryness baseline score of ≥3 (N=170). […] […] Source: Reproxalap RENEW-Part 1 clinical trial results and TRANQUILITY Run-In Cohort initial results. VAS=Visual Analog Scale; OD4S=Ocular Discomfort & 4-Symptom; CAC=Conjunctival Allergen Challenge; MMRM=Mixed Effect Model Repeated Measures.

The subject of data set [2] is RASP (reactive aldehyde species). Briefly: In vitro RASP elimination by reproxalap. It counts as biochemical. Conditions: reproxalap at equimolar concentrations. From the text: Regarding the use of tear RASP levels as a clinical endpoint, it is important to note that this is (to date) unprecedented. The FDA has not agreed to the use of RASP before as a clinical endpoint. In this regard, we have reached agreement with the US Food and Drug Administration (FDA) for the use of RASP (reactive aldehyde species) as an objective sign for the treatment of dry eye disease. RASP are pre-cytokine pro-inflammatory mediators that are elevated in the tears of patients with dry eye disease, and correlate with dry eye disease symptoms and signs. […] In in vitro studies, RASP were eliminated within 60 to 90 minutes when exposed to reproxalap at equimolar concentrations. […] The use of RASP as a trial endpoint represents the first novel objective sign for the treatment in dry eye disease in over a decade.

A further data set has as its system patients. Briefly: Overall clinical safety experience of topical ocular reproxalap. It counts as in vivo, human.

For the compound `CC(C)(O)c1nc2ccc(Cl)cc2cc1N` [reproxalap, Reproxalap], in data set [1], the “average decline of HNE levels in tears, pre-dose to post-dose” value worked out at 1018 pg/mL. Moreover, the “symptom improvements over vehicle (VAS ocular dryness score and multiple symptoms)” value in the data set on dry eye disease patients was “statistically significant symptom improvements”. The “time to elimination of RASP” value in data set [2] lay in the range of 60 to 90 min. Moreover, the “most commonly reported adverse event in clinical trials” value in the data set with patients (over 1,100 patients) is reported as “mild instillation site irritation”. For the same compound, in the data set with patients (studied in over 1,100 patients), the observed safety concerns entry is reported as “no observed safety concerns”.
